The values that follow come from US8193168B2, “Use of a TRPM5 inhibitor to regulate insulin and GLP-1 release” (Redpoint Bio Corporation, priority 2007, dated 2012).

For one assay, the system named is Beta-TC-6 cells. As to the kind of experiment: Insulin release enhancement in Beta-TC-6 cells (insulin ELISA). The format is cell-based, mouse. Conditions: for Percent Enhancement of Insulin Secretion (10 μM): compound at 10 μM, compared to glucose-dependent insulin production. The procedure:
Beta-TC-6 cells are an insulin-secreting cell line derived from transgenic mice expressing the large T-antigen of simian virus 40 (SV40) in pancreatic beta-cells as described by Poitout et al., Diabetes, 44:306-313 (1995). The cell line was obtained from ATCC cell bank CAT# CRL-11506 and grown in Dulbecco's Modified Eagle's Medium (DMEM) with 15% fetal bovine serum (FBS), 4 mM glutamine, 4.5 mM glucose 1500 mg/L sodium bicarbonate and 1× penn/strep antibiotic mix in a 37° C. incubator with 5% CO2. Cultures were routinely split 1:2 twice a week with the aid of trypsin.
On the day before the assay 0.1×10^6 Beta-TC-6 cells were plated into each well of 96 well plates, and the cells cultured overnight in growth media.
On the next day, growth media was removed from the plate and the monolayers rinsed with phosphate buffered saline (PBS) and pre-incubated 30 mins at 37° C. in Krebs-Ringer Bicarbonate Buffer (KRBB) consisting of 118.5 mM NaCl, 2.54 mM CaCl2, 1.19 mM KH2PO4, 4.74 mM KCl, 25 mM NaHCO3, 1.19 mM MgSO4, 10 mM HEPES buffer and 0.1% bovine serum albumin at pH 7.4. This buffer was removed and replaced with 100 μL of the same buffer containing various insulin release modulators: including various concentrations of glucose up to 12 mM and compounds up to 100 μM. Compounds stock solutions, e.g. 10-20 mM, were diluted in DMSO. Final DMSO concentrations in incubation buffer were 0.5% or less. Vehicle controls were included. Static incubations were then performed for 2 h at 37° C. The entire incubation volume was collected after the 2 h incubation for insulin assay.
ELISA Protocol for insulin determinations. The following protocol was used for doing ELISA using the Rat/Mouse Insulin ELISA Kit from Linco Research, Inc., CAT#EZRMI-13K and Amplex® Red Hydrogen Peroxide/Peroxidase Assay Kit, CAT#A22188, and Amplex® Red reagent (10-acetyl-3,7-dihydroxyphenoxazine) CAT#A12222.
All reagents were Pre-warmed to room temperature before setting up experiment.
1. Dilute the 10× washing buffer into 1× washing buffer. 50 mL+450 mL de-ionized water. Do 1:10 dilution to the cell culture supernatant (Beta-TC-6 cell incubation).
2. Use one column (8 wells) wells for standard samples and QC1 and QC2, typically 0 and 5 ng/mL of insulin. On some plates full standard curves for insulin obtained as shown below.
3. Cover the unused wells well. Wash each well 3 times with 300 μL of 1× washing buffer each time. (2 minutes each washing step on the shaker.) Decant Wash Buffer and remove the residual amount from all wells by inverting the plate and tapping it smartly onto absorbent towels several times.
4. Add 20 μL Assay Buffer into that blank well and 10 μL into those wells for standards and samples.
5. Add 10 μL rat insulin standards and samples to the appropriate wells.
6. Add 80 μL Detection Antibody to all wells. Cover the plate and incubate at room temperature for 2 hours.
7. Tear off the plate cover and decant solutions from the plate. Tap to remove residual solutions in well.
8. Wash well 3 times with diluted wash buffer 300 μL per well per wash (2 minutes each washing step on the shaker). Tap to remove residual solutions as before.
9. Add 100 μL Enzyme Solution to each well. Cover plate with sealer and incubate with moderate shaking at room temperature for 30 min on the microtiter plate shaker.
10. Remove sealer, decant solutions from the plate and tap plate to remove the residual fluid.
11. Wash wells 6 times with diluted Wash Buffer, 300 μL per well per wash. Decant and tap after each wash to remove residual buffer.
12. Prepare 5 mL working solution of […] Amolex Red reagent containing 2.0 mM H2O2. 4.45 mL of 1× Reaction buffer+50 μL 10 mM Amplex Reagent+500 μL 20 mM H2O2.
13. Add 100 μL of the Amplex Red reagent/H2O2 to each well.
14. Incubate the reactions. Incubate at room temperature for 30 minutes, protected from light (using foil to wrap the plate). […]

The next assay deals with T1, TRPM5 (Homo sapiens, UniProt Q9NZQ8).
T1 sequence (Q9NZQ8 1-1165): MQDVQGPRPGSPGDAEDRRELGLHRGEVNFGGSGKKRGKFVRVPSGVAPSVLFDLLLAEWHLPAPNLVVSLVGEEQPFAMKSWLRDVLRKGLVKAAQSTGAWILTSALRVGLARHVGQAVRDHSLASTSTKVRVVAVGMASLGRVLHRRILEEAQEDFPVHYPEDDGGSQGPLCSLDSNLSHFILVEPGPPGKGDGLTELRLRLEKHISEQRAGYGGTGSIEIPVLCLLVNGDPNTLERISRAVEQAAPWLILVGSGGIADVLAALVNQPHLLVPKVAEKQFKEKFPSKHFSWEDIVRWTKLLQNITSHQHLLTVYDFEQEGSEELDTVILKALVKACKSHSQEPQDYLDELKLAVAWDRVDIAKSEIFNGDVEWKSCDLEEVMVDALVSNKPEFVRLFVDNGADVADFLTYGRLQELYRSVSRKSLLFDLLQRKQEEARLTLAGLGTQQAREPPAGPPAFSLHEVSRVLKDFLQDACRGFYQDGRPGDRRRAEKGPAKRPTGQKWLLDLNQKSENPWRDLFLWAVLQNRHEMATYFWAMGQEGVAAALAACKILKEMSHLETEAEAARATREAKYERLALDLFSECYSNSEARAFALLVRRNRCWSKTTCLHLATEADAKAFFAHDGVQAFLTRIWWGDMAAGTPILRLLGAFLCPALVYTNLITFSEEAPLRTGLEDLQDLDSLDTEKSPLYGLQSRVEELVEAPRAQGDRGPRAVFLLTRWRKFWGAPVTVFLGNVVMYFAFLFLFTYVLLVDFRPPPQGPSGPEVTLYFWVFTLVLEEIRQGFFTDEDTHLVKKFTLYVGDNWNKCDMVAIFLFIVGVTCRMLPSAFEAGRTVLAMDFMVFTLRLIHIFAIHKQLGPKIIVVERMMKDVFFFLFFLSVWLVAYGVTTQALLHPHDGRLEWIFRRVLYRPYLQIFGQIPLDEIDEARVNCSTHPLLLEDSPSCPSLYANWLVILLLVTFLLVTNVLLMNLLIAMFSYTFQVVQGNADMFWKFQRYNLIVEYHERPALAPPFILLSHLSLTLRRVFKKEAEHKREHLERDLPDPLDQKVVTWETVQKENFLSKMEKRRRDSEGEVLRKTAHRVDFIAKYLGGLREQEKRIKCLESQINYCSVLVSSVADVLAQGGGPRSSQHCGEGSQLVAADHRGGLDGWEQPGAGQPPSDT
As to the kind of experiment: TRPM5 inhibition (FLIPR Membrane Potential Assay). The format is cell-based.

The next assay deals with GLUTag cells. As to the kind of experiment: GLP-1 release from GLUTag cells (GLP-1 ELISA). It is filed as cell-based, mouse. Conditions: for IC50: Mus musculus, GLUTag cells.
Setting [1] is: moderately high glucose (3.3 mM), FIG. 18.

SMILES strings stand for the structures.

On to `COc1ccc(/C=N/NC(=O)Cc2cccc3ccccc23)cc1OC` [Example 3, (E)-N′-(3,4-Dimethoxybenzylidene)-2-(naphthalene-1-yl)acetohydrazide], for which, in the assay with Beta-TC-6 cells (FIG. 5), the insulin secretion result is “increases insulin secretion”. In addition, in the assay with Beta-TC-6 cells, the “Percent Enhancement of Insulin Secretion (10 μM)” value came to 250%. For the same compound, in the assay on Beta-TC-6 cells (varying glucose concentration, FIG. 3 and FIG. 7), the “glucose dependence of stimulation of insulin release” value is reported as “increases insulin secretion in a glucose-dependent manner”. The IC50 – broadly, the concentration that gives 50% inhibition – on TRPM5 is 600 nM; in the assay on GLUTag cells (low glucose (0.1 mM), FIG. 19), 600 nM. The GLP-1 secretion result with GLUTag cells (10 mM glucose, FIG. 16) is recorded as “enhances GLP-1 secretion”. The GLP-1 release entry with GLUTag cells (low glucose (0.1 mM), FIG. 19) is given as “increase GLP-1 release”; in the assay with GLUTag cells (setting [1]), “increase GLP-1 release”.

As to `COc1ccc(/C=N/NC(=O)CCn2c3ccccc3c3ccccc32)cc1OC` [Example 23, 3-Carbazol-9-ylpropionic acid (3,4-dimethoxybenzylidene)hydrazide], the “Percent Enhancement of Insulin Secretion (10 μM)” value in the assay with Beta-TC-6 cells came to 208%. Further, the IC50 amounted to 500 nM against TRPM5 and 111 nM in the assay on GLUTag cells (low glucose (0.1 mM), FIG. 19). Besides, the GLP-1 release result in the assay with GLUTag cells (low glucose (0.1 mM), FIG. 19) is reported as “increase GLP-1 release”; in the assay with GLUTag cells (setting [1]) it was “increase GLP-1 release”.
